The results in this text go back to patent US20210109103A1, “METHODS AND KITS FOR DETECTING O-GlcNAc SITES USING B3GALNT2 AND OGT” (BIO-TECHNE CORPORATION, priority 2018, published 2021).

For experiment [1], the target named is T1, recombinant human O-GlcNAc transferase (OGT) (Homo sapiens, UniProt O15294).
T1 construct: purchased R&D Systems and/or Bio-Techne
T1 sequence (O15294 1-1046): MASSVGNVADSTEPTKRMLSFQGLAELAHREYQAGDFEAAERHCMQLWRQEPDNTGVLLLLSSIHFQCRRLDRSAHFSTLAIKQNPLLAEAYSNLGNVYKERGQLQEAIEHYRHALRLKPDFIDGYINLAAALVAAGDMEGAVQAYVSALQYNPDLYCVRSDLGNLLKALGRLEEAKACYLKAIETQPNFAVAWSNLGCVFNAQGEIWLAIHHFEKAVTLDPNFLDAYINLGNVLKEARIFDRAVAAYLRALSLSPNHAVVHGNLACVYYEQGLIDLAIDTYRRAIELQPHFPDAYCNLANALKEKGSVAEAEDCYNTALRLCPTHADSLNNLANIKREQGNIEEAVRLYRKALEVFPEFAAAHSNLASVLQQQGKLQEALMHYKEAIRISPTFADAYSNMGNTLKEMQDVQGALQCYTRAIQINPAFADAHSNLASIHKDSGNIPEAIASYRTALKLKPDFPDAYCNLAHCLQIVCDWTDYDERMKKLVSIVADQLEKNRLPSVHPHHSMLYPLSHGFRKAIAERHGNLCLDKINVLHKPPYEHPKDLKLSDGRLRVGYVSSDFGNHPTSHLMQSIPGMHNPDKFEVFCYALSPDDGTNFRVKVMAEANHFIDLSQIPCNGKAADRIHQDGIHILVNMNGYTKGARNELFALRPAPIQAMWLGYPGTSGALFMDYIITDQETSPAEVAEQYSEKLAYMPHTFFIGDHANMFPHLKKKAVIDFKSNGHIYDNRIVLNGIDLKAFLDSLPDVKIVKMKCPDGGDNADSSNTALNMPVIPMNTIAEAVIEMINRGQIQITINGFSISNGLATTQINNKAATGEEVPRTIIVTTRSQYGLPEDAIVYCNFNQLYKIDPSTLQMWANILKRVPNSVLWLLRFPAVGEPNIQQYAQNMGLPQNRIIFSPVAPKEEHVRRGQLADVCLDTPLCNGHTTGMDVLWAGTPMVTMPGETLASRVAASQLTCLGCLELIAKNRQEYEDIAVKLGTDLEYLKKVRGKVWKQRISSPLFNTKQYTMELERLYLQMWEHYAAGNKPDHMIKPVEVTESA
Briefly: phosphatase coupled universal glycosyltransferase assay, OGT. The experiment is classed as biochemical. The conditions noted are these: 0.4 mM nucleotide sugar donor, 0.2 mM acceptor OGT substrate, 2.5 μg OGT, 37° C., 20 minutes (FIG. 8). Here is the method: (§1) Using a phosphatase coupled universal glycosyltransferase assay, an analysis of the activity of B3GALNT2 and OGT on regular nucleotide sugar as compared to azido nucleotide sugar was performed. For the B3GALNT2 assay, 0.4 mM nucleotide sugar donor (UDP-GalNAc or UDP-GalNAz), 2 mM of acceptor substrate benzyl-β-GlcNAc, and 0.1 μg of coupling phosphatase 1 were combined with 1 μg of B3GALNT2 in 50 μL of assay buffer of 25 mM Tris at pH 7.5, 10 mM MnCl2 and 10 mM CaCl2 at 37° C. for 20 minutes. For the OGT assay, 0.4 mM nucleotide sugar donor (UDP-GlcNAc or UDP-GlcNAz), 0.2 mM of acceptor OGT substrate, and 0.1 μg of coupling phosphatase 1 were combined with 2.5 μg of OGT in 50 μL of assay buffer of 25 mM Tris at pH 7.5, 10 mM MnCl2 and 10 mM CaCl2 at 37° C. for 20 minutes. Both assays were performed according to the Universal Glycosyltransferase Assay Kit from R&D Systems®. FIG. 8 is a bar graph of the activity of B3GALNT2 and OGT on regular nucleotide sugars compared to azido nucleotide sugars.

Experiment [2] concerns the target T2, recombinant human B3GALNT2 (Homo sapiens, UniProt Q8NCR0).
T2 construct: purchased R&D Systems and/or Bio-Techne
T2 sequence (Q8NCR0 1-500): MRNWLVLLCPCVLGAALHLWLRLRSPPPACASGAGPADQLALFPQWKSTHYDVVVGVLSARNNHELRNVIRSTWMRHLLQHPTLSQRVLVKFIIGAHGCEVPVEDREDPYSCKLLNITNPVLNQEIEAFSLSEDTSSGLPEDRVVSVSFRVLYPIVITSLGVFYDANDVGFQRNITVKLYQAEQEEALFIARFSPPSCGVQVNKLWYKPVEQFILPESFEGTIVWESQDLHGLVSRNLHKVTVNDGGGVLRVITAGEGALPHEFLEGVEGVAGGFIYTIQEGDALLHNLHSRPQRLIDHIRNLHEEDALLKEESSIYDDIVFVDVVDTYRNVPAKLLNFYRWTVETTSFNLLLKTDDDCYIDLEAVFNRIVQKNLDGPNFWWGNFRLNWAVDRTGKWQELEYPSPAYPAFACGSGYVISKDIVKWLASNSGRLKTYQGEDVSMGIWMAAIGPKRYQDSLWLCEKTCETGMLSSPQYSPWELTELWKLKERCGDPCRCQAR
Briefly: phosphatase coupled universal glycosyltransferase assay, B3GALNT2. Type of experiment: biochemical. The conditions noted are these: 0.4 mM nucleotide sugar donor, 2 mM acceptor benzyl-β-GlcNAc, 1 μg B3GALNT2, 37° C., 20 minutes; compared with UDP-GalNAc (FIG. 8). Here is the method:
as §1

As for `[N-]=[N+]=NCC(=O)N[C@H]1[C@@H](OP(=O)(O)OP(=O)(O)OC[C@H]2O[C@@H](n3ccc(=O)[nH]c3=O)[C@H](O)[C@@H]2O)O[C@H](CO)[C@@H](O)[C@@H]1O` [UDP-GlcNAz], the “activity of OGT on azido nucleotide sugar compared to regular nucleotide sugar” value in experiment [1] is “equally active”.

Consider `[N-]=[N+]=NCC(=O)N[C@H]1[C@@H](OP(=O)(O)OP(=O)(O)OC[C@H]2O[C@@H](n3ccc(=O)[nH]c3=O)[C@H](O)[C@@H]2O)O[C@H](CO)[C@H](O)[C@@H]1O` [UDP-GalNAz], for which the “activity of B3GALNT2 on azido nucleotide sugar compared to regular nucleotide sugar” value in experiment [2] was “more active on UDP-GalNAz than on UDP-GalNAc”.

In the case of `CC(=O)N[C@H]1[C@@H](OP(=O)(O)OP(=O)(O)OC[C@H]2O[C@@H](n3ccc(=O)[nH]c3=O)[C@H](O)[C@@H]2O)O[C@H](CO)[C@@H](O)[C@@H]1O` [UDP-GlcNAc], in experiment [1], the “activity of OGT on azido nucleotide sugar compared to regular nucleotide sugar” value is “equally active”.
